Test results reported in patent US12649750B2, “Macrocyclic compounds, compositions, and methods of using thereof” (Sionna Therapeutics Inc., priority 2022, dated 2026).

How the values were obtained:
CFTR = biological target: T1, CFTR (Homo sapiens, UniProt P13569, DEL508-508); experiment: TECC24 AUC fold over DMSO @10 μM, CFTR-mediated transepithelial chloride transport in CF-HBE cells; assay type: cell-based; conditions: test agent AUC divided by DMSO vehicle AUC, primary CF-HBE cells, ΔF508 homozygous donor, 48 hours incubation
T1 construct: Primary human bronchial epithelial cells from a ΔF508 homozygous CF donor; host or cells: primary human bronchial epithelial cells (CF-HBE), ΔF508 homozygous donor
Procedure: Example 387. TECC24 AUC Fold Over DMSO @10 μM
The effects of a test agent on CFTR-mediated transepithelial chloride transport is measured using TECC24 recording analysis. Test agents are solubilized in DMSO. Solubilized test agents are mixed with incubation medium containing DMEM/F12, Ultroser G (2%; Crescent Chemical, catalog #67042), Hyclone Fetal Clone II (2%; GE Healthcare, catalog #SH30066.02), bovine brain extract (0.25%; Lonza, catalog #CC-4098), insulin (2.5 μg/mL), IL-13 (10 ng/mL), hydrocortisone (20 nM), transferrin (2.5 μg/mL), triiodothyronine (500 nM), ethanolamine (250 nM), epinephrine (1.5 μM), phosphoethanolamine (250 nM), and retinoic acid (10 nM). Primary human bronchial epithelial cells from a ΔF508 homozygous CF donor (CF-HBE cells; from University of North Carolina Cystic Fibrosis Tissue Procurement Center), grown on Transwell HTS 24-well cell culture inserts (Costar, catalog #3378), are exposed to test agents or controls dissolved in incubation medium. The CF-HBE cells are cultured at 36.5° C. for 48 hours before TECC24 recordings are performed in the presence or absence of test agent, a positive control or vehicle (DMSO).
Following incubation, the transwell cell culture inserts containing the test agent or control-treated CF-HBE cells are loaded onto a TECC24 apparatus (TECC v7 or MTECC v2; EP Design) to record the transepithelial voltage (VT) and resistance (TEER) using 4 AgCl electrodes per well configured in current-clamp mode. The apical and basolateral bath solutions both contain (in mM) 140 NaCl, 5 KCl, 2 CaCl2, 1 MgCl2, 10 Hepes, and 10 glucose (adjusted to pH 7.4 with NaOH). To inhibit basal Na+ absorption, the ENaC inhibitor benzamil (10 μM) is added to the bath. Then, the adenylate cyclase activator, forskolin (10 μM), is added to the bath to activate CFTR. The forskolin-stimulated Cl— transport is halted by addition of CFTR inhibitor-172 (20 μM) to the bath at the end of the experiment to confirm specificity. VT and TEER recordings are digitally acquired at routine intervals using TECC or MTECC software (EP Design). VT and TEER are transformed into equivalent transepithelial Cl— current (IEQ), and the Area Under the Curve (AUC) of the IEQ time course between forskolin and CFTR inhibitor-172 addition is generated using Excel (Microsoft). Efficacy is expressed as the ratio of the test agent AUC divided by vehicle AUC. EC50s based on AUC are generated using the non-linear regression log(agonist) vs. response function in Prism software (Graphpad) with HillSlope fixed=1.
If a test agent increases the AUC of the forskolin-stimulated IEQ relative to vehicle in CF-HBE cells, and this increase is inhibited by CFTR inhibitor-172, then the test agent is considered a CFTR corrector. TECC assay efficacy is expressed as the ratio of the test agent AUC divided by DMSO vehicle AUC. As set forth in Table 2 below, a TECC value less than 12 is marked “A”; a value between 12-20 is marked “B”; a value between 20 and 80 is marked “C”. […]

NBD1 = biological target: T2, NBD1 (Homo sapiens, UniProt P13569); experiment: Aggregation analysis using differential static light scattering (DSLS), thermal stability of NBD1 (ΔTagg); assay type: binding; conditions: ΔTagg versus DMSO control, NBD1 0.2 mg/ml
T2 construct: Purified recombinant NBD1 was produced using previously described methods; made in house
Outline: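 Differential static light scattering read from 25° C. to 70° C. every 0.5° C., ramp 1° C./min, on recombinant NBD1 (0.2 mg/ml; Tris/NaCl/MgCl2 buffer with 2 mM ATP, 2 mM DTT, pH 7.6, 1% glycerol) plus compound. Reported ΔTagg subtracts averaged DMSO Tagg from inflection-point Tagg; categories A ≤5, B >5-10, C >10-25° C.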

T2 sequence (P13569 423-646 limits assumed): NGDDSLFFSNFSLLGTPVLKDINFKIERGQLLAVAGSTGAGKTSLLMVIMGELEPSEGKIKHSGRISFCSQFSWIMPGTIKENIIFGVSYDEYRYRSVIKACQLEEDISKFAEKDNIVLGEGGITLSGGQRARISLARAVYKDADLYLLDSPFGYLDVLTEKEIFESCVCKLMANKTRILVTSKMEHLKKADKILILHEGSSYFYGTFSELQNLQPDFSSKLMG
T1 sequence (P13569 with tags, fused parts or gaps DEL508-508): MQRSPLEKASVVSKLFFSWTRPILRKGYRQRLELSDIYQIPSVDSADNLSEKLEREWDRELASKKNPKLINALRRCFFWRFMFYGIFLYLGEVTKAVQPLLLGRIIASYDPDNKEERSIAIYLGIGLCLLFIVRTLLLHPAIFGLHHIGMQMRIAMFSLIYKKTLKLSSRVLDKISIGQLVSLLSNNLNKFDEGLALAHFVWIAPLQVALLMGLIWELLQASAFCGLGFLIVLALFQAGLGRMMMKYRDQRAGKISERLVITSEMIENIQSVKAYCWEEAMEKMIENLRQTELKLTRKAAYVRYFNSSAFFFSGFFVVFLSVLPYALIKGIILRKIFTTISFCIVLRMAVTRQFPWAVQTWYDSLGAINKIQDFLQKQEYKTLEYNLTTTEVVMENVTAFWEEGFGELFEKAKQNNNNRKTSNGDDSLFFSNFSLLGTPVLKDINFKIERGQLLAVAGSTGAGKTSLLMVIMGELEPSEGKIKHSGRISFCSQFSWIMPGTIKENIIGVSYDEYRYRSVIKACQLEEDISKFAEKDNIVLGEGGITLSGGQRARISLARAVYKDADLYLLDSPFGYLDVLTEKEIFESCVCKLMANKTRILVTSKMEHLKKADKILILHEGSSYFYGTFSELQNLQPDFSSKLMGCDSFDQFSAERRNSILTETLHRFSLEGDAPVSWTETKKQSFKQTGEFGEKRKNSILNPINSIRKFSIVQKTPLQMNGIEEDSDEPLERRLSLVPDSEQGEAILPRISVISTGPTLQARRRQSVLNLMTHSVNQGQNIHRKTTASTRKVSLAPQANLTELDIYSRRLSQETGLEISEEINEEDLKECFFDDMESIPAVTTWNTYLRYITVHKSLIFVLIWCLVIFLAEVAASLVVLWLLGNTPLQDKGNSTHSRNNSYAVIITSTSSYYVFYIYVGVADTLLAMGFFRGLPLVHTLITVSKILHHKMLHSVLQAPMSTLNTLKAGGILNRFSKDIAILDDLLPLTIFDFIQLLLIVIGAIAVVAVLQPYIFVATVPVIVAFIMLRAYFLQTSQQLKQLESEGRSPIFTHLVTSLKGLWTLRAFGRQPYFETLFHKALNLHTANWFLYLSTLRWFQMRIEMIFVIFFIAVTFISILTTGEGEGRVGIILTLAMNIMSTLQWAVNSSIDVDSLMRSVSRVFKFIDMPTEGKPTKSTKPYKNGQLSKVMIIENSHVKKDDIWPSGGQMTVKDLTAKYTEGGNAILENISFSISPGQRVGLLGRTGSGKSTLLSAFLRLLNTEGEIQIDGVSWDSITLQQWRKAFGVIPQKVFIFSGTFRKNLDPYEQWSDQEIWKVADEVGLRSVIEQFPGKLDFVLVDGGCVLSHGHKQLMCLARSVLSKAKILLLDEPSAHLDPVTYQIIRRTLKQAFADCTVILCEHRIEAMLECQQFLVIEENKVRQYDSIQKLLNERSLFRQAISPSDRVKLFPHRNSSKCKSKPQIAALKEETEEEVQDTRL

`C[C@@H](Cc1cccc([C@@]2(C)CCCC(C)(C)CS(=O)(=O)CCc3c(c(F)cc4[nH]ccc34)Oc3ccnc(c3)-c3nc2nn3C)c1)C(=O)O` (mixture of isomers) [Compound 201, (2S)-3-[3-[(6R)-22-Fluoro-3,6,10,10-tetramethyl-12,12-dioxo-24-oxa-12λ6-thia-3,4,19,28,30-pentazapentacyclo[23.3.1.12,5.015,23.016,20]triaconta-1(29),2(30),4,15,17,20,22,25,27-nonaen-6-yl]phenyl]-2-methyl-propanoic Acid] was tested, and the “TECC (AUC, 10 μM)” value (CFTR) was “B (a value between 12-20 is marked “B”)” and the “DSLS 3D (100 μM ΔT)” value (NBD1) was “C (a value greater than 10 °C and less than or equal to 25 °C is marked “C”)”.

With `CC(CC(=O)O)c1cccc([C@@]2(C)CCCC(C)(C)CS(=O)(=O)CCc3c(c(F)cc4[nH]ccc34)[S+]([O-])c3ccc(F)c(c3)-c3nc2nn3C)c1` (mixture of isomers) [Compound 217A, 3-[3-[(6R)-22,28-difluoro-3,6,10,10-tetramethyl-12,12,24-trioxo-12λ6,24λ4-dithia-3,4,19,30-tetrazapentacyclo[23.3.1.12,5.015,23.016,20]triaconta-1(29),2(30),4,15,17,20,22,25,27-nonaen-6-yl]phenyl]butanoic Acid] the “TECC (AUC, 10 μM)” value (CFTR) was “A (a TECC value less than 12 is marked “A”)” and the “DSLS 3D (100 μM ΔT)” value (NBD1) was “B (a value above 5 °C and less than or equal to 10 °C is marked “B”)”.

`CC(CC(=O)O)c1cccc([C@@]2(C)CCCC(C)(C)CS(=O)(=O)CCc3c(c(F)cc4[nH]ccc34)[S+]([O-])c3ccc(F)c(c3)-c3nc2nn3C)c1` (mixture of isomers) [Compound 217B, 3-[3-[(6R)-22,28-difluoro-3,6,10,10-tetramethyl-12,12,24-trioxo-12λ6,24λ4-dithia-3,4,19,30-tetrazapentacyclo[23.3.1.12,5.015,23.016,20]triaconta-1(29),2(30),4,15,17,20,22,25,27-nonaen-6-yl]phenyl]butanoic Acid] was tested, and the “TECC (AUC, 10 μM)” value (CFTR) was “C (a value between 20 and 80 is marked “C”)” and the “DSLS 3D (100 μM ΔT)” value (NBD1) was “C (a value greater than 10 °C and less than or equal to 25 °C is marked “C”)”.

`CC(O)Cn1nc2nc1-c1cc(ccc1F)Oc1c(F)cc3[nH]ccc3c1CCS(=O)(=O)CC(C)(C)CCC[C@]2(C)c1cccc(C[C@@H](C)C(=O)O)c1` (mixture of isomers) [Compound 219, (2R)-3-[3-[(6R)-22,28-Difluoro-3-(2-hydroxypropyl)-6,10,10-trimethyl-12,12-dioxo-24-oxa-12λ6-thia-3,4,19,30-tetrazapentacyclo[23.3.1.12,5.015,23.016,20]triaconta-1(29),2(30),4,15,17,20,22,25,27-nonaen-6-yl]phenyl]-2-methyl-propanoic acid] was tested, and the “TECC (AUC, 10 μM)” value (CFTR) was “C (a value between 20 and 80 is marked “C”)” and the “DSLS 3D (100 μM ΔT)” value (NBD1) was “C (a value greater than 10 °C and less than or equal to 25 °C is marked “C”)”.

For `C[C@H](Cc1cccc(C2(C)CCCC(C)(C)CS(=O)(=O)CCc3c(c(F)cc4[nH]ccc34)Oc3ccc(F)c(c3)-c3ccn2n3)c1)C(=O)O` (mixture of isomers) [Compound 230, (2R)-3-[3-(22,28-difluoro-6,10,10-trimethyl-12,12-dioxo-24-oxa-12λ6-thia-5,19,30-triazapentacyclo[23.3.1.12,5.015,23.016,20]triaconta-1(29),2(30),3,15,17,20,22,25,27-nonaen-6-yl)phenyl]-2-methyl-propanoic Acid], the “TECC (AUC, 10 μM)” value (CFTR) was “C (a value between 20 and 80 is marked “C”)” and the “DSLS 3D (100 μM ΔT)” value (NBD1) was “C (a value greater than 10 °C and less than or equal to 25 °C is marked “C”)”.

For `C[C@@H](Cc1cccc([C@@]2(C)CCCC(C)(C)CS(=O)(=O)CCc3c(c(F)cc4[nH]ccc34)C(=O)c3ccnc(c3)-c3nc2nn3C)c1)C(=O)O` (mixture of isomers) [Compound 254, (2S)-2-Methyl-3-[3-[rac-(6R)-22-fluoro-3,6,10,10-tetramethyl-12,12,24-trioxo-12λ6-thia-3,4,19,28,30-pentazapentacyclo[23.3.1.12,5.015,23.016,20]triaconta-1(29),2(30),4,15,17,20,22,25,27-nonaen-6-yl]phenyl]propanoic Acid], the “TECC (AUC, 10 μM)” value (CFTR) was “B (a value between 12-20 is marked “B”)” and the “DSLS 3D (100 μM ΔT)” value (NBD1) was “C (a value greater than 10 °C and less than or equal to 25 °C is marked “C”)”.

In the case of `C[C@H](Cc1cccc(C2(C)CCCC(C)(C)CS(=O)(=O)CCc3c(c(F)cc4[nH]ccc34)Oc3ccc(F)c(c3)-c3nc2nn3C)c1)C(=O)OCCN1CCN(C)CC1` (single isomer, unassigned) [Compound 182], the “TECC (AUC, 10 μM)” value (CFTR) is reported as “A (a TECC value less than 12 is marked “A”)”.

In the case of `Cn1nc2nc1-c1cc(ccc1F)[S+]([O-])c1c(F)cc3[nH]ccc3c1CCS(=O)(=O)CC(C)(C)CCCC2(C)c1cccc(/C=C/C(=O)O)c1` (single isomer, unassigned) [Compound 210A, (E)-3-[3-(22,28-difluoro-3,6,10,10-tetramethyl-12,12,24-trioxo-12λ6,24λ4-dithia-3,4,19,30-tetrazapentacyclo[23.3.1.12,5.015,23.016,20]triaconta-1(29),2(30),4,15,17,20,22,25,27-nonaen-6-yl)phenyl]prop-2-enoic Acid], the “TECC (AUC, 10 μM)” value (CFTR) is reported as “C (a value between 20 and 80 is marked “C”)”.

With `Cn1nc2nc1-c1cc(ccc1F)[S+]([O-])c1c(F)cc3[nH]ccc3c1CCS(=O)(=O)CC(C)(C)CCCC2(C)c1cccc(/C=C/C(=O)O)c1` (single isomer, unassigned) [Compound 210B, (E)-3-[3-(22,28-difluoro-3,6,10,10-tetramethyl-12,12,24-trioxo-12λ6,24λ4-dithia-3,4,19,30-tetrazapentacyclo[23.3.1.12,5.015,23.016,20]triaconta-1(29),2(30),4,15,17,20,22,25,27-nonaen-6-yl)phenyl]prop-2-enoic Acid] the “TECC (AUC, 10 μM)” value (CFTR) was “A (a TECC value less than 12 is marked “A”)”.

`Cn1nc2nc1-c1cc(ccc1F)[S+]([O-])c1c(F)cc3[nH]ccc3c1CCS(=O)(=O)CC(C)(C)CCCC2(C)c1cccc(/C=C/C(=O)O)c1` (single isomer, unassigned) [Compound 210C, (E)-3-[3-(22,28-difluoro-3,6,10,10-tetramethyl-12,12,24-trioxo-12λ6,24λ4-dithia-3,4,19,30-tetrazapentacyclo[23.3.1.12,5.015,23.016,20]triaconta-1(29),2(30),4,15,17,20,22,25,27-nonaen-6-yl)phenyl]prop-2-enoic Acid] was tested, and the “TECC (AUC, 10 μM)” value (CFTR) was “B (a value between 12-20 is marked “B”)”.

`Cn1nc2nc1-c1cc(ccc1F)[S+]([O-])c1c(F)cc3[nH]ccc3c1CCS(=O)(=O)CC(C)(C)CCCC2(C)c1cccc(/C=C/C(=O)O)c1` (single isomer, unassigned) [Compound 210D, (E)-3-[3-(22,28-difluoro-3,6,10,10-tetramethyl-12,12,24-trioxo-12λ6,24λ4-dithia-3,4,19,30-tetrazapentacyclo[23.3.1.12,5.015,23.016,20]triaconta-1(29),2(30),4,15,17,20,22,25,27-nonaen-6-yl)phenyl]prop-2-enoic Acid] was tested, and the “TECC (AUC, 10 μM)” value (CFTR) was “C (a value between 20 and 80 is marked “C”)”.
